{
  "source": "paper PMC10980263",
  "about": "“Cryo-EM structures of the human NaS1 and NaDC1 transporters revealed the elevator transport and allosteric regulation mechanism” (Science Advances, 2024)",
  "molecules": {"B1": {"name": "human NaDC1 (SLC13A2), sodium ion-dicarboxylate cotransporter 1, natural variant I550V (natural protein, UniProt Q13183-1 1-592, looked up)", "chain": "MATCWQALWAYRSYLIVFFVPILLLPLPILVPSKEAYCAYAIILMALFWCTEALPLAVTALFPLILFPMMGIVDASEVAVEYLKDSNLLFFGGLLVAIAVEHWNLHKRIALRVLLIVGVRPAPLILGFMLVTAFLSMWISNTATSAMMVPIAHAVLDQLHSSQASSNVEEGSNNPTFELQEPSPQKEVTKLDNGQALPVTSASSEGRAHLSQKHLHLTQCMSLCVCYSASIGGIATLTGTAPNLVLQGQINSLFPQNGNVVNFASWFSFAFPTMVILLLLAWLWLQILFLGFNFRKNFGIGEKMQEQQQAAYCVIQTEHRLLGPMTFAEKAISILFVILVLLWFTREPGFFLGWGNLAFPNAKGESMVSDGTVAIFIGIIMFIIPSKFPGLTQDPENPGKLKAPLGLLDWKTVNQKMPWNIVLLLGGGYALAKGSERSGLSEWLGNKLTPLQSVPAPAIAIILSLLVATFTECTSNVATTTIFLPILASMAQAICLHPLYVMLPCTLATSLAFMLPVATPPNAIVFSFGDLKVLDMARAGFLLNIIGVLVIALAINSWGIPLFSLHSFPSWAQSNTTAQCLPSLANTTTPSP", "notes": "full-length human SLC13A2 (NaDC1), NP_003975.1, UniProtKB Q13183, with the natural variant I550V that was used to determine the structures; Homodimer in the cryo-EM structures (OUT/OUT; No removal of the FLAG tag is described; the protein was captured on anti-FLAG resin and eluted with FLAG peptide; also called NaDC1_apo; NaDC1_citrate; source: extracted in DDM/CHS, exchanged to GDN); not shown: …"}, "B2": {"name": "human NaS1 (SLC13A1), sodium ion-sulfate cotransporter 1 (natural protein, UniProt Q9BZW2 1-595, looked up)", "chain": "MKFFSYILVYRRFLFVVFTVLVLLPLPIVLHTKEAECAYTLFVVATFWLTEALPLSVTALLPSLMLPMFGIMPSKKVASAYFKDFHLLLIGVICLATSIEKWNLHKRIALKMVMMVGVNPAWLTLGFMSSTAFLSMWLSNTSTAAMVMPIAEAVVQQIINAEAEVEATQMTYFNGSTNHGLEIDESVNGHEINERKEKTKPVPGYNNDTGKISSKVELEKNSGMRTKYRTKKGHVTRKLTCLCIAYSSTIGGLTTITGTSTNLIFAEYFNTRYPDCRCLNFGSWFTFSFPAALIILLLSWIWLQWLFLGFNFKEMFKCGKTKTVQQKACAEVIKQEYQKLGPIRYQEIVTLVLFIIMALLWFSRDPGFVPGWSALFSEYPGFATDSTVALLIGLLFFLIPAKTLTKTTPTGEIVAFDYSPLITWKEFQSFMPWDIAILVGGGFALADGCEESGLSKWIGNKLSPLGSLPAWLIILISSLMVTSLTEVASNPATITLFLPILSPLAEAIHVNPLYILIPSTLCTSFAFLLPVANPPNAIVFSYGHLKVIDMVKAGLGVNIVGVAVVMLGICTWIVPMFDLYTYPSWAPAMSNETMP", "notes": "full-length human SLC13A1 (NaS1), NP_071889.2, UniProtKB Q9BZW2; No removal of the FLAG tag is described; the protein was captured on anti-FLAG resin and eluted with FLAG peptide; not shown: FLAG, N-terminal, kept"}},
  "key": {"[1]": {"target": "T1, NaDC1 (Homo sapiens, UniProt Q13183)", "T1 sequence (Q13183 1-592)": "B1 chain with V550I", "assay": "whole-cell patch clamp, transfected HEK293T", "type": "cell-based", "set-up": "gene SLC13A2; full length, homodimer; GFP and FLAG tagged in HEK293T for currents", "details": "citrate-induced current; reversible on washout"}, "[2]": {"target": "T2, NaDC1 (Homo sapiens, UniProt Q13183, I550V)", "T2 construct": "gene SLC13A2; full length, homodimer; N-terminal FLAG purified from HEK293F (structures, natural variant I550V); GFP and FLAG tagged in HEK293T for currents", "T2 sequence (Q13183 1-592 I550V)": "B1 chain", "assay": "cryo-EM structure ([…] Å)", "type": "binding", "details": "400 μM ACA; allosteric site of TM2, L10, TM11, TM6a"}, "[3]": {"target": "T3, NaS1 (Homo sapiens, UniProt Q9BZW2)", "T3 construct": "gene SLC13A1; full length, N-terminal FLAG tag, HEK293F membranes, purified in GDN, homodimer", "T3 sequence (Q9BZW2 1-595)": "B2 chain", "assay": "cryo-EM structure (IN/IN […] Å, IN/OUT […] Å)", "type": "binding", "details": "substrate site; Na+ bound at Na1 in IN/IN"}, "[4]": {"target": "the molecule itself", "assay": "cryo-EM structure; single-particle cryo-EM of purified NaDC1 in 20 mM Hepes pH 7.4, 150 mM NaCl, 0.02% GDN; apo, with 10 mM sodium citrate, or with 400 uM ACA; OUT/OUT dimer"}, "[5]": {"target": "the molecule itself", "assay": "cryo-EM structure; single-particle cryo-EM of purified NaS1 in 25 mM tris pH 8.0, 150 mM NaCl, 0.01% GDN; apo and sulfate-bound; IN/IN and IN/OUT dimers"}},
  "note": "Residue numbers refer to the chain shown, from its start. Numbers in names are those of the source.",
  "data": [
    {"molecule": "CCCCCc1ccc(/C=C/C(=O)Nc2ccccc2C(=O)O)cc1", "note": "[ACA]", "values": [
      {"measurement": "whole-cell patch clamp, transfected HEK293T", "setting": "[1]", "value": "A significant decrease in citrate-induced current was detected when ACA was added"},
      {"measurement": "cryo-EM structure (3.3 Å)", "setting": "[2]", "value": "the cryo-EM structure of NaDC1 bound with ACA was solved"}
    ]},
    {"molecule": "O=S(=O)(O)O", "note": "[sulfate]", "values": [
      {"measurement": "cryo-EM structure (IN/IN 3.1 Å, IN/OUT 3.2 Å)", "setting": "[3]", "value": "there is obvious sulfate density around the classical substrate binding pocket of NaS1_sulfate_IN/IN"}
    ]},
    {"molecule": "B1", "values": [
      {"measurement": "binding result", "setting": "[4]", "value": "binds"}
    ]},
    {"molecule": "B2", "values": [
      {"measurement": "binding result", "setting": "[5]", "value": "binds"}
    ]}
  ]
}
